The values that follow come from publication PMC8909805, “Anticancer Activity of (S)-5-Chloro-3-((3,5-dimethylphenyl)sulfonyl)-N-(1-oxo-1-((pyridin-4-ylmethyl)amino)propan-2-yl)-1H-indole-2-carboxamide (RS4690), a New Dishevelled 1 Inhibitor” (Cancers, 2022).

A word on the EC50: it is the concentration needed to bring the measured effect to its halfway point.

The structures appear in SMILES notation.

For this test, the target named is T1, DVL1 binding to FZD4 (Homo sapiens, UniProt O14640).
T1 construct: host or cells: HEK293
T1 sequence (O14640 1-695): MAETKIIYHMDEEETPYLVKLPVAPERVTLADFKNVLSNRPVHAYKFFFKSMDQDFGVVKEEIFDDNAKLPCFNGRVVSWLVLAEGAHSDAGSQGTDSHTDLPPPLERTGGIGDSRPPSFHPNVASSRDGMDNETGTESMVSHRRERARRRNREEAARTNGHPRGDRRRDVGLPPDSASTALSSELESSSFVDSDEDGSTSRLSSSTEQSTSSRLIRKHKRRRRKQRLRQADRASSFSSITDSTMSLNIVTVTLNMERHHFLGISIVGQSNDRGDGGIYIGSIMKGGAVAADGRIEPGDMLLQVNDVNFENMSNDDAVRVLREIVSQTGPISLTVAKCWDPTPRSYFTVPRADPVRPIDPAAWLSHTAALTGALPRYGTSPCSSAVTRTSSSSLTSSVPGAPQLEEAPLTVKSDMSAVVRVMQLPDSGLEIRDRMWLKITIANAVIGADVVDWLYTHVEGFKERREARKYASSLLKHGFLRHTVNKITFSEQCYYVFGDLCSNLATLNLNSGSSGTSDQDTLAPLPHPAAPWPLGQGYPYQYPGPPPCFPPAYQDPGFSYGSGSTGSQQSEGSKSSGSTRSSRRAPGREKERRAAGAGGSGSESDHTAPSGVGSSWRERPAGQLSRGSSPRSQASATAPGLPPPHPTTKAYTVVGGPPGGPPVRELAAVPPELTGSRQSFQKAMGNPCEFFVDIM
Kind of test: Inhibition of DVL1 (DVL-GFP) recruitment by FZD4 at the plasma membrane of HEK293 cells. Format: cell-based. Particulars: HEK293 cells co-transfected with HA-FZD4 and GFP-DVL-1; 24 h treatment; read-out: EC50 ± SD DVL1 Binding Inhibition. As to the method: HEK293 cells were seeded in 96-well tissue culture plates at a density of 5 × 10 ^3/well. After 16–24 h seeding, cells were co-transfected with HA-FZD4-wt (0.04 µg/well) and GFP-tagged DVL-1 (0.04 µg/well) using PEI (0.25 µL/well) in a final volume of 100 µL/well. After 24 h of transfection, the medium was replaced and supplemented with the indicated compounds diluted in culture medium. After 24 h of treatment, cells were fixed in 3.7% formaldehyde freshly diluted in PBS for 30 min at RT, quenched with 0.1 M glycine/PBS for 30 min at RT, and washed with PBS. Samples were observed under a Leica confocal fluorescent microscope. Inhibition of DVL recruitment was measured by counting the percentage of cells losing GFP-DVL-1 localization on the PM. Experiments were performed in triplicate, and the standard deviations are indicated.
The crucial role played by PDZ domains in the spreading of cellular signals and their aberrant activations in many human diseases makes the PDZ domains very attractive targets for drug discovery. […] To identify new DVL1 inhibitors, we followed a virtual screening approach by fixing as the main filter a pharmacophoric model. We speculated that compound 2, the recently reported inhibitor of NHERF1 PDZ1 domain [26], may be able also to bind the DVL PDZ domain. The activity of compound 2 was assayed in HEK293 cells transiently expressing both HA-tagged-FZD4 (HA-FZD4) and the chimeric construct DVL-GFP. In the absence of HA-FZD4, DVL-GFP is localized in punctate intracellular structures known as signalosomes. In the presence of FZD-4 expression, DVL-GFP is recruited on the PM of the cell showing a drastic change in localization. As previously reported, drugs acting as inhibitors of FZD4/DVL binding reduce the amount of DVL-GFP recruited on the PM. […] Thus, we used the information gained from the binding mode of compound 2 to design a pharmacophore model that would lead to the identification of new DVL1 PDZ binders. At the same time, to better distinguish between the inhibitory activities of DVL1 and NHERF1, we added a new query to the pharmacophore model. Actually, comparing the PDZ structures of the studied proteins, we identified a significant difference. The upper part of the carboxylic binding loop was delimited by Tyr24, Ile79 and Val86 for NHERF1, while we observed Leu12, Val75 and Ile81, respectively, for DVL1. […] This peculiar feature of the DVL1 PDZ was included in our pharmacophore model by adding a hydrophobic query to obtain the required selectivity (Figure S1, Supplementary Materials). […] Thus, for each molecule, we obtained 10 conformations, and all of the proposed binding poses (7000 molecules per 10 conformations) were scored by the fitting to the pharmacophore model. […]
Consider `Cc1cc(C)cc(S(=O)(=O)c2c(C(=O)N[C@H](C)C(=O)NCc3ccncc3)[nH]c3ccc(Cl)cc23)c1` [(R)-1], for which the EC50 is 29500 ± 900 nM.
The value for `Cc1cc(C)cc(S(=O)(=O)c2c(C(=O)N[C@@H](C)C(=O)NCc3ccncc3)[nH]c3ccc(Cl)cc23)c1` [(S)-1, (S)-5-Chloro-3-((3,5-dimethylphenyl)sulfonyl)-N-(1-oxo-1-((pyridin-4-ylmethyl)amino)propan-2-yl)-1H-indole-2-carboxamide] was 490 ± 110 nM; that for `Cc1cc(C)cc(S(=O)(=O)c2c(C(=O)NC(C)C(=O)NCc3ccncc3)[nH]c3ccc(Cl)cc23)c1` (stereo not drawn) [Compound 1] was 740 ± 80 nM.
